Entries after “also recorded” stand apart in the source; their conditions may differ. Ends that are not written are not given here.

Here are results for 15 compounds from patent US20170037117A1, “COMPOSITIONS AND METHODS FOR TREATING METABOLIC DISORDERS” (Salk Institute for Biological Studies, priority 2014, published 2017).

Assay [1] concerns CRTC1 shuttling in DRG neurons. Put plainly: CRTC1 nuclear shuttling in dissociated DRG neuronal cultures (immunostaining). The assay is classed as cell-based, mouse.
For assay [2], the system named is G1 Fab binding to human α-CGRP on the chip. As to the kind of experiment: Epitope mapping of antibody G1 by peptide competition using Biacore. To be noted: for percentage of binding of G1 Fab to human α-CGRP blocked by competing peptide: 10 uM peptide in 50 nM G1 Fab (2000:1 mol peptide/Fab), FIG. 6. An excerpt: N-biotinylated human α-CGRP was captured on SA sensor chip. […] Y axis represents percentage of binding blocked by the presence of the competing peptide compared with the binding in the absence of the competing peptide.
Chain of G1 Fab binding to human α-CGRP on the chip (as listed by the source): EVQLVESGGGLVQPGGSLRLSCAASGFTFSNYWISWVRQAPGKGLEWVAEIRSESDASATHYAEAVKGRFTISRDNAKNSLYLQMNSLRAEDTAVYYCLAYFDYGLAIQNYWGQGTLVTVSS
Chain of G1 Fab binding to human α-CGRP on the chip (as listed by the source): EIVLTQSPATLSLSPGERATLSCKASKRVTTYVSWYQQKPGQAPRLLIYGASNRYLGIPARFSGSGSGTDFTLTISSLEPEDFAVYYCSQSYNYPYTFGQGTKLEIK
Human α-CGRP was purchased as an N-biotinylated version to enable its high-affinity capture via SA sensor chips. […] All these peptides are amidated at the C-terminus.

The test system of a further assay is MIN6 cells. Put plainly: Insulin secretion assay of mouse insulinoma cells (MIN6) upon glucose stimulation. The class given is cell-based. The conditions noted are these: 16.8 mM glucose; for effect on glucose-stimulated insulin release: 100 nM to 500 nM peptide, FIGS. 15A-C, 16A. The protocol: FIGS. 15A-15C: Insulin secretion assay of mouse insulinoma cells (MIN6) upon 16.8 mM glucose stimulation.
FIGS. 16A-16C illustrate insulin secretion and inflammation of the TRPV1 mutant mice. FIG. 16A: Insulin secretion assay of mouse insulinoma cells (MIN6) upon 16.8 mM glucose stimulation with 0.1-0.5 μM synthetic human CGRPα. FIG. 16B: Insulin secretion assay (MIN6) upon 16.8 mM glucose and exendin 4 stimulation.
MIN6 insulinoma cells were obtained at passage 18 from Ulupi Jhala (UCSD, La Jolla, Calif.) and were cultured in DMEM (Life technologies) containing 11 mM glucose, 10% FBS, Glutamax (Invitrogen) and 10 μM β-mercapthoethanol as previously described (Huising et al., Proc. Natl. Acad. Sci. 107:912-917, 2010). Glucose stimulation was performed at low (2.8 mM) and high (16.8 mM). Treatments were diluted in Krebs-Ringer bicarbonate buffer with 2.8 mM glucose.
To mimic pancreatic β-cell glucose mediated insulin release, mouse insulinoma MIN6 cells were used (Huising et al., Proc. Natl. Acad. Sci. 107:912-917, 2010).

Assay [3] can be described thus: Indirect calorimetry (RER, oxygen consumption) of old wild-type mice treated with CGRP8-37 by osmotic pump. The class given is in vivo, mouse. The conditions noted are these: old (22-23 months) male WT C57BL/6J mice, osmotic pumps, 5.5 mg/mL, after 6 weeks of treatment. The protocol:
FIGS. 15A-15C: Insulin secretion assay of mouse insulinoma cells (MIN6) upon 16.8 mM glucose stimulation. Cells were incubated with 0.1-0.5 μM synthetic peptides for FIG. 15A: rat CGRPα, FIG. 15B: rat CGRPβ and FIG. 15C: rat Substance P, n=4, means±S.E.M, **p<0.01, *p<0.05, Student's t test. FIG. 15D: Serum levels of CGRP measured by ELISA in blood samples from WT and TRPV1 mutants at 3 and 24 months, n=7, means±S.E.M. a, ns and b, p<0.05. FIG. 15E: Respiratory exchange ratio (RER) analysis and oxygen consumption FIG. 15F: of 23 months old male WT animals treated with CGRP8-37 or vehicle control, n=10, means±S.E.M.,**p<0.01, *p<0.05, Student's t test.
Indirect calorimetric studies were conducted in a Comprehensive Lab Animal Monitoring System (Columbus Instruments). For GTT and GSIS, glucose (2 g/kg weight) was intraperitoneally administered and blood glucose was measured from tail bleeds at indicated times after injection using a One Touch Ultra glucometer (LifeScan). For the ITT, 5 hour fasted mice were injected with 1 u/kg of human insulin (Humulin; Eli Lily) and glucose was measured as in the GTT. […] Serum insulin was measured using an UltraSensitive Insulin ELISA kit (Crystal Chem). Serum levels of fasted leptin, adiponectin were measured using Quantikine ELISA Kits (R&D systems). […] CGRP was measured using ELISA (EIAab). […]

As for `COc1cccc(NC(=O)/C=C/c2ccc(Cl)cc2)c1` [SB-366791], in assay [1] (WT DRG neurons, pretreatment prior to stimulation with FSK and Cap, 10 μM or 2 μM, FIG. 14D), the “CRTC1 nuclear localization after blockade of TRPV1” value was “robust nuclear exclusion of CRTC1”.
Turning to “26-37: human α-CGRP fragment 26-37, SEQ ID NO: 35, NFVPTNVGSKAF, C-terminally amidated [Clone 26-37]”, the “percentage of binding of G1 Fab to human α-CGRP blocked by competing peptide” value (“percentage of binding of G1 Fab” below) in assay [2] was found to be 100%.
With “rat β-CGRP: rat β-CGRP 1-37, SEQ ID NO: 44, SCNTATCVTHRLAGLLSRSGGVVKDNFVPTNVGSKAF”, the “effect on glucose-stimulated insulin release” value (shortened to “effect”) in the assay with MIN6 cells was “insulin release was greatly blunted”. The “reduction of insulin release, % of the maximum insulin response” value in the assay with MIN6 cells (500 nM peptide) turned out to be 58%. Further, the “percentage of binding of G1 Fab” value in assay [2] worked out at 100%.
Turning to `COc1cc(CNC(=O)CCCC/C=C/C(C)C)ccc1O` [Cap, capsaicin], the CRTC1 nuclear localization result in assay [1] is “accumulation of CRTC1 in the nuclei of TRPV1-positive cells”. Besides, the “Cap-induced CRTC1 shuttling” value in assay [1] (TRPV1 mutant DRG neurons, Cap 1 μM, FIG. 14C) is listed as “abolished”.
Turning to “G1: humanized IgG2 monoclonal anti-CGRP antagonist antibody; VH SEQ ID NO: 1, VL SEQ ID NO: 2; ATCC PTA-6867 and PTA-6866 [Clone G1]”, the “epitope on human α-CGRP that is recognized by antibody G1” value in assay [2] (Biacore peptide competition and variant affinities) is “targets a C-terminal epitope of CGRP; also recorded: binds to a C-terminal epitope with F37 and G33 being the most important residues; also recorded: on the C-terminal end of human α-CGRP”.
For the compound “rat α-CGRP: rat α-CGRP 1-37, SEQ ID NO: 41, SCNTATCVTHRLAGLLSRSGGVVKDNFVPTNVGSEAF”, the “reduction of insulin release, % of the maximum insulin response” value in the assay with MIN6 cells (100 nM peptide) is on record as 46%. Moreover, in the assay on MIN6 cells, the “effect” value is listed as “insulin release was greatly blunted”. In addition, in assay [2], the “percentage of binding of G1 Fab” value is 100%.
For the compound “substance P (RPKPQQFFGLM-NH2; ends and bridges not checked; UniProt P06767 58-68, looked up) [TRPV1 secreted neuropeptide; synthetic rat peptide]”, in the assay on MIN6 cells, the “effect” value is “did not alter insulin secretion”.
As for “8-37: human α-CGRP fragment 8-37, SEQ ID NO: 16, VTHRLAGLLSRSGGVVKNNFVPTNVGSKAF, C-terminally amidated [Clone 8-37]”, the “percentage of binding of G1 Fab” value in assay [2] came to 100%.
Same read-out and setting: next, “P29A (19-37): human α-CGRP mutant fragment, SEQ ID NO: 18, SGGVVKNNFVATNVGSKAF, C-terminally amidated (SGGVVKNNFVATNVGSKAF-NH2; listed as Homo sapiens)”: 100%.
Consider “K35M (19-37): human α-CGRP mutant fragment, SEQ ID NO: 21, SGGVVKNNFVPTNVGSMAF, C-terminally amidated (SGGVVKNNFVPTNVGSMAF-NH2; listed as Homo sapiens)”, for which the “percentage of binding of G1 Fab” value in assay [2] turned out to be 100%.
Take `NC1=N[C@H](O)[C@H]2[C@H]3O[C@]4(O)O[C@@H]([C@@H](O)[C@@]2(N1)[C@@H]4O)[C@]3(O)CO` [TTX, Tetrodotoxin]: the “distribution of CRTC1” value in assay [1] was “remained mostly cytoplasmic”.
Regarding “K35E (19-37): human α-CGRP mutant fragment, SEQ ID NO: 20, SGGVVKNNFVPTNVGSEAF, C-terminally amidated (SGGVVKNNFVPTNVGSEAF-NH2; listed as Homo sapiens)”, the “percentage of binding of G1 Fab” value in assay [2] is 100%.
Same read-out and setting: the result for “K35A (19-37): human α-CGRP mutant fragment, SEQ ID NO: 19, SGGVVKNNFVPTNVGSAAF, C-terminally amidated (SGGVVKNNFVPTNVGSAAF-NH2; listed as Homo sapiens)” reads 100%.
The same measure, in the same setting: next, “1-37 of β-CGRP (WT): human β-CGRP 1-37, SEQ ID NO: 43, ACNTATCVTHRLAGLLSRSGGMVKSNFVPTNVGSKAF, C-terminally amidated”: 100%.
As for “CGRP 8-37: positive control compound (vasodilatation antagonist); CGRP receptor antagonist (Tocris Bioscience) (VTHRLAGLLSRSGGVVKNNFVPTNVGSKAF-NH2; UniProt P06881 90-119, looked up, fragment)”, the oxygen consumption result in assay [3] (vs controls) is listed as “increased”. In addition, in assay [3] (vs vehicle), the “respiratory exchange ratio (RER), metabolic circadian shift from night to day” value is “reappearance of a more youthful metabolic circadian shift from night to day”.
